# According to patent US20240408167A1, “COMPOSITION FOR TREATING OCULAR DISEASES CONTAINING PEPTIDE” (Encuragen Inc., priority 2023, published 2024):
# Test system: rabbit DED model
# Assay: Corneal fluorescein staining (CFS) score, rabbit DED model
# Type: in vivo
# Conditions: for dynamic slope of the CFS score change: from Day 1 to Day 10
# Procedure: The rabbit DED model was induced by locally administrating 0.1% benzalkoniumchloride (BAC) drops (Sigma, St. Louis, MO, USA) twice a day (8 a.m. and 4 p.m.). Before the BAC treatment, the control group (baseline, naive) underwent standard dry eye clinical tests such as the Schirmer tear test (STT), TBUT, and corneal staining score (CSS) test. After the BAC treatment, the induction of dry eye syndrome was confirmed, and the test substance was administered for 10 days while maintaining the induction of dry eye syndrome. […] The test substance was locally applied bis in die (BID) to both eyes.
# The subjects were evaluated by corneal staining, and the abnormal findings of the eyelids, cornea, and conjunctiva were recorded. After dropping 1 μL of the 1% fluorescent dye solution and washing with saline solution, and the cornea was observed under a slit-lamp microscope and scored to evaluate the degree of epithelial damage (degree of fluorescent staining).
substance,measurement,setting,value
"NH2-Tyr-Tyr-Phe-Ala-Tyr-His-Pro-Asn-Ile-Pro-Gly-Leu-Tyr-Tyr-Phe-COOH (H-YYFAYHPNIPGLYYF-OH; also: PEGylated, site not given here (mPEG), acetate salt) [(PEG)-BHD1028]",CFS,"rabbit DED, 0.1% BID, Day 5",7.17 ± 1.21 score
same,CFS,"rabbit DED, 0.1% BID, Day 10",6.67 ± 0.56 score
same,CFS,"rabbit DED, 0.2% BID, Day 5",6.83 ± 0.64 score
same,CFS,"rabbit DED, 0.2% BID, Day 10",6.17 ± 0.55 score
same,CFS,"rabbit DED, 0.4% BID, Day 5",5.67 ± 0.38 score
same,CFS,"rabbit DED, 0.4% BID, Day 10",3.83 ± 0.64 score
same,CFS,"rabbit, 0.1% group, Baseline (before BAC treatment)",0.00 ± 0.00 score
same,CFS,"rabbit, 0.1% group, Day 0 (EDE), before treatment",6.67 ± 0.30 score
same,CFS,"rabbit, 0.2% group, Baseline (before BAC treatment)",0.00 ± 0.00 score
same,CFS,"rabbit, 0.2% group, Day 0 (EDE), before treatment",9.17 ± 0.37 score
same,dynamic slope of the CFS score change,"rabbit, 0.2%",−0.42
same,CFS,"rabbit, 0.4% group, Baseline (before BAC treatment)",0.00 ± 0.00 score
same,CFS,"rabbit, 0.4% group, Day 0 (EDE), before treatment",8.00 ± 0.62 score
same,mean CFS score lower than that of the 0.05% cyclosporine treated animals,"rabbit, 0.4%, Day 10, p=0.0558",approximately 46%
same,dynamic slope of the CFS score change,"rabbit, 0.4%",−0.33
